According to patent publication US8263606B2 (Xenon Pharmaceuticals Inc., priority 2008, dated 2012):

Key:
[1] = tested on: sodium channel; test: Guanidine influx assay (14C-guanidine radiotracer flux, in vitro); type: cell-based, human or rat; conditions: guanidine influx assay using a known cell line that expresses a sodium channel
Source text: This example describes an in vitro assay for testing and profiling test agents against human or rat sodium channels stably expressed in cells of either an endogenous or recombinant origin. The assay is also useful for determining the IC50 of a sodium channel blocking compound. The assay is based on the guanidine flux assay described by Reddy, N. L., et al., J. Med. Chem. (1998), 41(17):3298-302.
The guanidine influx assay is a radiotracer flux assay used to determine ion flux activity of sodium channels in a high-throughput microplate-based format. The assay uses ^14C-guanidine hydrochloride in combination with various known sodium channel modulators, to assay the potency of test agents. Potency is determined by an IC50 calculation. Selectivity is determined by comparing potency of the compound for the channel of interest to its potency against other sodium channels (also called ‘selectivity profiling’).
Each of the test agents is assayed against cells that express the channels of interest. Voltage gated sodium channels are either TTX sensitive or insensitive. This property is useful when evaluating the activities of a channel of interest when it resides in a mixed population with other sodium channels. The following Table 1 summarizes cell lines useful in screening for a certain channel activity in the presence or absence of TTX.
It is also possible to employ recombinant cells expressing these sodium channels. Cloning and propagation of recombinant cells are known to those skilled in the art (see, for example, Klugbauer, N, et al., EMBO J. (1995), 14(6):1084-90; and Lossin, C., et al., Neuron (2002), 34, pp. 877-884).
Cells expressing the channel of interest are grown according to the supplier or in the case of a recombinant cell in the presence of selective growth media such as G418 (Gibco/Invitrogen). The cells are disassociated from the culture dishes with an enzymatic solution (Ix) Trypsin/EDTA (Gibco/Invitrogen) and analyzed for density and viability using haemocytometer (Neubauer). Disassociated cells are washed and resuspended in their culture media then plated into Scintiplates (Beckman Coulter Inc.) (approximately 100,000 cells/well) and incubated at 37° C./5% CO2 for 20-24 hours. After an extensive wash with Low sodium HEPES-buffered saline solution (LNHBSS) (150 mM Choline Chloride, […] (Sigma), 1 mM Calcium Chloride, 5 mM Potassium Chloride, 1 mM Magnesium Chloride, 10 mM Glucose) agents diluted with LNHBSS are added to each well. (Varying concentrations of test agent may be used). The activation/radiolabel mixture contains aconitine (Sigma) to increase the percentage of time that the sodium channels are open, and ^14C-guanidine hydrochloride (ARC) to measure flux through the voltage-gated sodium channels.
After loading the cells with test agent and activation/radiolabel mixture, the Scintiplates are incubated at ambient temperature. Following the incubation, the Scintplates are extensively washed with LNHBSS supplemented with guanidine (Sigma). The Scintiplates are dried and then counted using a Wallac MicroBeta TriLux (Perkin-Elmer Life Sciences). The ability of the test agent to block sodium channel activity is determined by comparing the amount of ^14C-guanidine present inside the cells expressing the different sodium channels.
The IC50 value of a test agent for a specific sodium channel may be determined using the above general method. […] Typically the mid-point concentration of test agent is set at 1 μM, and sequential concentrations of half dilutions greater or smaller are applied (e.g. 0.5 μM; 5 μM and 0.25 μM; 10 μM and 0.125 μM; 20 μM etc.). The IC50 curve is calculated using the 4 Parameter Logistic Model or Sigmoidal Dose-Response Model formula (fit=(A+((B−A)/(1+((C/x)^D)))).
The fold selectivity, factor of selectivity or multiple of selectivity, is calculated by dividing the IC50 value of the test sodium channel by the reference sodium channel, for example, Nav1.5. […]

[2] = biological target: CYP3A4 (Homo sapiens, UniProt P08684); test: Cytochrome P450 (CYP450) Inhibition Assay, CYP3A4 (Vivid fluorescence, BOMCC substrate); conditions: human, P450 Baculosomes (recombinant CYP3A4), probe BOMCC (Vivid substrate)
Chain of CYP3A4 (P08684 whole entry): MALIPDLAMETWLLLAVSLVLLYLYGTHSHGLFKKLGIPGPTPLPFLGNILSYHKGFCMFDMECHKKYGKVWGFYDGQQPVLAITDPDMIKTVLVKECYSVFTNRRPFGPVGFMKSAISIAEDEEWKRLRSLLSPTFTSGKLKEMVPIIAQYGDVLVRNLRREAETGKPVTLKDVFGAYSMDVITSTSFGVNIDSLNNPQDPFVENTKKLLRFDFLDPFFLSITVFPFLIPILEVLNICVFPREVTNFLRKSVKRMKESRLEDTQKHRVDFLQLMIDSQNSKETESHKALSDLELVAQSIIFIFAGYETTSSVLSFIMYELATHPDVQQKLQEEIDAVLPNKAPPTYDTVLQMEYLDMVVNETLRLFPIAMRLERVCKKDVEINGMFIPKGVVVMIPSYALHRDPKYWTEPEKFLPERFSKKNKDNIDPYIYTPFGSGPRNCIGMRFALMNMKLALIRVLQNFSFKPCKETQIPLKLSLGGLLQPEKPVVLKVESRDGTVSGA

IC50 [1] [nM]	inhibition at 10 µM [2] [%]	IC50 ([1]; activity level class) [nM]	SMILES
1000 to 10000	< 50	–	CN(C)Cc1cccc2c1C1(COc3cc4c(cc31)CCO4)C(=O)N2C[C@H]1CCCO1 (stereo partly drawn) [Example 11.37, 4′-[(dimethylamino)methyl]-1′-[(2R)-tetrahydrofuran-2-ylmethyl]-5,6-dihydrospiro[benzo[1,2-b:5,4-b′]difuran-3,3′-indol]-2′(1′H)-one]
100 to 1000	< 50	–	CC(C)Oc1ccc2c(c1)OCC21C(=O)N(C[C@H]2CCCO2)c2ccccc21 (stereo partly drawn) [Example 11.54, 6-(1-methylethoxy)-1′-[(2R)-tetrahydrofuran-2-ylmethyl]spiro[1-benzofuran-3,3′-indol]-2′(1′H)-one]
100 to 1000	< 50	–	COCCOCCN1C(=O)C2(COc3ccc(OCCOC)cc32)c2ccccc21 (stereo not drawn) [Example 9.76, 5-(2-methoxyethoxy)-1′-[2-(2-methoxyethoxy)ethyl]spiro[1-benzofuran-3,3′-indol]-2′(1′H)-one]
1000 to 10000	> 50	–	C[C@@H](NC(=O)c1cccc(CN2C(=O)C3(COc4cc5c(cc43)CCO5)c3ccccc32)c1)C1CCCCC1 (stereo partly drawn) [Example 12.7, N-[(1R)-1-cyclohexylethyl]-3-[(2′-oxo-5,6-dihydrospiro[benzo[1,2-b:5,4-b′]difuran-3,3′-indol]-1′(2′H)-yl)methyl]benzamide]
1 to 100	< 50	–	COCCOCCN1C(=O)[C@@]2(COc3cc4c(cc32)OCCO4)c2ccccc21 [Example 9.70, (8S)-1′-[2-(2-methoxyethoxy)ethyl]-2,3-dihydrospiro[furo[2,3-g][1,4]benzodioxine-8,3′-indol]-2′(1′H)-one]
1000 to 10000	< 50	–	NC(=O)CN1C(=O)C2(COc3cc4c(cc32)CCO4)c2ccccc21 (stereo not drawn) [Example 12.46, 2-(2′-oxo-5,6-dihydrospiro[benzo[1,2-b:5,4-b′]difuran-3,3′-indol]-1′(2′H)-yl)acetamide]
1 to 100	> 50	–	NC(=O)c1ccc(CN2C(=O)C3(COc4cc5c(cc43)CCO5)c3ccccc32)cc1 (stereo not drawn) [Example 12.31, 4-[(2′-oxo-5,6-dihydrospiro[benzo[1,2-b:5,4-b′]difuran-3,3′-indol]-1′(2′H)-yl)methyl]benzamide]
100 to 1000	< 50	–	O=C(O)c1ccc(CN2C(=O)C3(COc4cc5c(cc43)CCO5)c3ccccc32)cc1 (stereo not drawn) [Example 11.31, 4-[(2′-oxo-5,6-dihydrospiro[benzo[1,2-b:5,4-b′]difuran-3,3′-indol]-1′(2′H)-yl)methyl]benzoic acid]
1000 to 10000	< 50	–	CNC(=O)c1cccnc1CN1C(=O)C2(COc3cc4c(cc32)OCCO4)c2ccccc21 (stereo not drawn) [Example 12.63, N-methyl-2-[(2′-oxo-2,3-dihydrospiro[furo[2,3-g][1,4]benzodioxine-8,3′-indol]-1′(2′H)-yl)methyl]pyridine-3-carboxamide]
1 to 100	> 50	–	CC(C)NC(=O)c1coc(CN2C(=O)C3(COc4cc5c(cc43)OCO5)c3ccccc32)n1 (stereo not drawn) [Example 13.6, N-(1-methylethyl)-2-[(2′-oxospiro[furo[2,3-f][1,3]benzodioxole-7,3′-indol]-1′(2′H)-yl)methyl]-1,3-oxazole-4-carboxamide]
1000 to 10000	> 50	–	O=C(NCc1cccc(Cl)c1)c1ccccc1CN1C(=O)C2(COc3cc4c(cc32)CCO4)c2ccccc21 (stereo not drawn) [Example 12.23, N-(3-chlorobenzyl)-2-[(2′-oxo-5,6-dihydrospiro[benzo[1,2-b:5,4-b′]difuran-3,3′-indol]-1′(2′H)-yl)methyl]benzamide]
100 to 1000	> 50	–	O=C(NCCc1cccs1)c1ccc(CN2C(=O)C3(COc4cc5c(cc43)CCO5)c3ccccc32)cc1 (stereo not drawn) [Example 12.30, 4-[(2′-oxo-5,6-dihydrospiro[benzo[1,2-b:5,4-b′]difuran-3,3′-indol]-1′(2′H)-yl)methyl]-N-(2-thiophen-2-ylethyl)benzamide]
1000 to 10000	< 50	–	O=C(O)c1ccccc1CN1C(=O)C2(COc3cc4c(cc32)CCO4)c2ccccc21 (stereo not drawn) [Example 11.30, 2-[(2′-oxo-5,6-dihydrospiro[benzo[1,2-b:5,4-b′]difuran-3,3′-indol]-1′(2′H)-yl)methyl]benzoic acid]
100 to 1000	< 50	–	CCN(CC)C(=O)CN1C(=O)C2(COc3cc4c(cc32)CCO4)c2ccccc21 (stereo not drawn) [Example 12.48, N,N-diethyl-2-(2′-oxo-5,6-dihydrospiro[benzo[1,2-b:5,4-b′]difuran-3,3′-indol]-1′(2′H)-yl)acetamide]
1000 to 10000	< 50	–	O=C1N(CC2CCNCC2)c2ccccc2C12COc1cc3c(cc12)CCO3 (stereo not drawn) [Example 11.5, 1-(piperidin-4-ylmethyl)-5,6-dihydrospiro[benzo[1,2-b:5,4-b′]difuran-3,3′-indol]-2′(1′H)-one]
100 to 1000	> 50	–	O=C1N(Cc2ccc(-c3ccncc3)o2)c2ccccc2C12COc1cc3c(cc12)CCO3 (stereo not drawn) [Example 11.15, 1′-[(5-pyridin-4-ylfuran-2-yl)methyl]-5,6-dihydrospiro[benzo[1,2-b:5,4-b′]difuran-3,3′-indol]-2′(1′H)-one]

Further lines, the compound ahead of its results:

SMILES	IC50 [1] [nM]	inhibition at 10 µM [2] [%]	IC50 ([1]; activity level class) [nM]
O=C1N(Cc2ncccc2C(F)(F)F)c2ccccc2C12COc1cc3c(cc12)OCCC3 (stereo not drawn) [Example 5.29, 1-{[3-(trifluoromethyl)pyridin-2-yl]methyl}-7,8-dihydro-6H-spiro[furo[2,3-g]chromene-3,3′-indol]-2′(1′H)-one]	–	< 50	100 to 1000
O=C1N(Cc2cccc(OC(F)(F)F)c2)c2ccccc2C12COc1cc3c(cc12)OCCO3 (stereo not drawn) [Example 7.24, 1′-[(3-trifluoromethoxy)benzyl]-2,3-dihydrospiro[furo[2,3-g][1,4]benzodioxine-8,3′-indol]-2′(1′H)-one]	–	> 50	1 to 100
O=C1Nc2ccccc2C12COc1cc(Br)ccc12 (stereo not drawn) [Example 3.2, 6-bromospiro[1-benzofuran-3,3′-indol]-2′(1′H)-one]	–	> 50	1000 to 10000
COCCOc1ccc2c(c1)C1(CO2)C(=O)Nc2ccccc21 (stereo not drawn) [Example 3.47, 5-(2-methoxyethoxy)spiro[1-benzofuran-3,3′-indol]-2′(1′H)-one]	–	< 50	1000 to 10000
CC(C)CCN1C(=O)C2(COc3cc4c(cc32)CCO4)c2ccccc21 (stereo not drawn) [Example 4.4, 1′-(3-methylbutyl)-5,6-dihydrospiro[benzo[1,2-b:5,4-b′]difuran-3,3′-indol]-2′(1′H)-one]	–	> 50	1 to 100
O=C(O)c1ccc(CN2C(=O)C3(COc4cc5c(cc43)CCO5)c3ccccc32)o1 (stereo not drawn) [Example 13, 5-[(2′-oxo-5,6-dihydrospiro[benzo[1,2-b:5,4-b′]difuran-3,3′-indol]-1′(2′H)-yl)methyl]furan-2-carboxylic acid]	1000 to 10000	< 50	–
O=C1N(Cc2ncccc2C(F)(F)F)c2ccccc2C12COc1cc3c(cc12)OCCO3 (stereo not drawn) [Example 7.13]	–	> 50	1 to 100
O=C1N(Cc2ccc(C(F)(F)F)nc2)c2ccccc2C12COc1cc3c(cc12)OCCO3 (stereo not drawn) [Example 4.98, 1-{[6-(trifluoromethyl)pyridin-3-yl]methyl}-2,3-dihydrospiro[furo[2,3-g][1,4]benzodioxine-8,3′-indol]-2′(1′H)-one]	–	> 50	1 to 100
